Where “and” joins values, the source holds several entries; their conditions need not be identical. Equal values may be shown once.
How the values were obtained:
[1] = LNP size and polydispersity index (PDI) by dynamic light scattering (Zetasizer); format: physicochemical
Method: (§1) The LNP size and polydispersity index (PDI), determined by dynamic light scattering (DLS), and zeta potential were measured by a Zetasizer machine (Malvern). RNA concentration and encapsulation efficacy (EE %) were analyzed by the Quant-IT Ribogreen kit by calculating the percentage encapsulation at 100%—(RNA-LNPs/RNA-LNPs with Triton X-100).

[2] = RNA encapsulation efficacy (EE %) by Quant-IT Ribogreen kit; format: physicochemical; conditions: LNP
Method: as §1

[3] = system: Hep G2 cells; test: In vitro expression: luciferase activity in Hep G2 cells transfected with RNA-LNPs; format: cell-based; conditions: 100 ng/mL RNA-LNPs, 72 hours post transfection
Method: 2E5 Hep G2 cells were transfected with 100 ng/mL of RNA-LNPs encoding for firefly-luciferase. At 72 hours post transfection, the cells were washed and lysed. The luciferase expression (2-well repeat) was determined in the cell lysates with the luciferase assay reagent kit (Promega), according to the kit protocol, luciferase activity was measured by a luminometer.

[4] = system: Hep G2 cells; test: In vitro toxicity: Hep G2 cell viability by CellTiter-Glo; format: cell-based; conditions: 72 hours post transfection, cell only = 100%
Method: 2E5 Hep G2 cells were transfected with 1 μg/mL RNA-LNPs. At 72 hours post transfection, cell viability (2-well repeat) was determined with the CellTiter-Glo® reagent kit, according to the kit protocol, measured by a luminometer. Cell only as control (100%).
The cell viability was calculated according to the following formula: […]

[5] = system: Balb/c mice; test: In vivo expression by IV, 0.05 mg/kg luciferase RNA-LNPs, IVIS luminescence; conditions: Formulation No. 010, RNA No. 331, female Balb/c mice, 0.05 mg*kg−1 intravenous
How it was run: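 Female Balb/c mice (7-8 weeks, N=3) received 0.05 mg*kg−1 firefly-luciferase RNA-LNPs IV. Luciferin (15 mg/ml) was given IP at 24 and 72 h post-dose for IVIS whole-body luminescence. A second run imaged whole body, liver and spleen at 24 h only.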

[6] = system: C57BL/6J mice; test: In vivo expression by ID, whole-body/injection site skin/lymph node luminescence; conditions: intradermal 0.15 mg/kg, 72 h post injection, female C57BL/6J mice N=3, Formulation 001, RNA 331
Method: 7-8 week old, female C57BL/6J mice (N=3) were injected with 0.15 mg*kg−1 of RNA-LNPs encoding for firefly-luciferase by intradermal injection. At 72-hours post injection, animals were intraperitoneally injected with 15 mg/mi of Luciferin substrate and whole-body/injection site skin/lymph node luminescence were determined by a bioluminescent in vivo imaging system (IVIS).

[7] = system: injection site skin; test: In vivo tolerability after intradermal injection: H&E staining of injection site skin; parameters: species or system C57BL/6J mice; key to Infiltration, mononuclear cells, dermis/subcutaneous, focal, Grade / Edema, subcutaneous, focal, Grade / Erosion, focal, Grade / Skin, Grade: 1==minimal; 2=mild; 3=moderate; 4=marked; 5=severe; N=Normal; NA=Not applicable; —=No data; conditions: intradermal 0.15 mg/kg, 72 h, Formulation 001, RNA 331
Method: 7-8 week old, female C57BL/6J mice (N=3) were injected with 0.15 mg*kg−1 of RNA-LNIPs encoding for firefly-luciferase by intradermal injection. At 72-hours post injection, injection site skin from each animal was collected in 10% formalin, for H&E staining. PBS group (N=2) as control. (Note: 1==minimal, 2=mild, 3=moderate, 4=marked, 5=severe; N=Normal; NA=Not applicable; —=No data)

[8] = system: hEPO; test: In vivo expression by IM: serum hEPO concentration by ELISA; conditions: IM 0.075 mg/kg, male C57BL/6J mice N=3, Formulation 001, RNA 019
Method: Circular RNA payloads were suspended in 25 mM Acetate Buffer (pH 4.5). To form LNPs, three volumes of human erythropoietin (hEPO) encoding cirRNA (SEQ ID NO:2), were mixed with one volume of lipids in ethanol solution by microfluidic mixing with the INano™ L+ (Micro& Nano) at a flow rate of 12 ml/min. The molar ratio of ionizable lipid to ribonucleotide was 6. After encapsulation, the particles were dialyzed twice against PBS. The LNP formulation was concentrated to targeted RNA concentration by Amicon® Ultra Centrifugal Filter (100 kDa MWCO) and filtered by a 0.65/0.22 um sterile filter.
6-8 week old, male C57BL/6J mice (N=3) were injected with 0.075 mg*kg−1 of RNA-LNPs encoding for hEPO by intramuscular injection. At 2-/6-/24-/48-/72 h-hours post injection, about 80 μL blood will be harvested and immediately added to the procoagulant containing tube. Stand for 30 min at room temperature and then centrifuged at 2500 g×10 min to obtain serum. About 30 μL serum samples will be aliquoted for hEPO concentration detection by ELISA kit (STEMCELL Technologies).

[9] = Formulation No. 001, RNA No. 019 (hEPO)
[10] = Formulation No. 001, RNA No. 331
[11] = Formulation No. 010, RNA No. 331

## CCCCC/C=C\C/C=C\CCCCCCCC(=O)N[C@@H](COC(=O)NCCN1CCCCCC1)C(=O)OCCCCCCCC(=O)OC(CCCCCCCC)CCCCCCCC [Lipid 602]
[1]; [9]
  PDI: 0.04
  Size: 67.47 nm
[1]; [10]
  PDI: 0.08
  Size: 76.34 nm
[1]; Formulation No. 010 (Ionizable lipid:DSPC:cholesterol:DSPE-PEG2000 = 38:30:30:2, N/P 6), RNA No. 331
  Size (nm): 64.73 nm
[1]; [11]
  PDI: 0.16
[2]; [9]
  EE (%): 95.79%
[2]; [10]
  EE (%): 97.94%
[2]; [11]
  EE (%): 97.13%
[3]; Formulation 001, RNA 331
  In vitro Expression (Mean): 5.82E+05
[3]; Formulation No. 010, RNA No. 331 (firefly-luciferase)
  In vitro Expression (Mean): 6.30E+05
[4]; 1 μg/mL RNA-LNPs, Formulation 001, RNA 331
  In vitro cell viability (%) (Mean): 82.68%
[4]; Formulation No. 010, RNA No. 331, 1 μg/mL RNA-LNPs
  In vitro cell viability (%) (Mean): 84.17%
[5]; 24 hours post injection
  Whole body at 24 h (p/s) (Mean): 2.66E+08 p/s
[5]; 72 hours post injection
  Whole body at 72 h (p/s) (Mean): 1.24E+08 p/s
[6]
  Injection site Skin (p/s): 3.02E+07 p/s
  Lymph node (p/s): 3.01E+06 p/s
  Whole body (p/s): 1.40E+08 p/s
[7]; per animal
  Edema, subcutaneous, focal, Grade: 1 (2×) and 2
  Erosion, focal, Grade: —
  Infiltration, mononuclear cells, dermis/subcutaneous, focal, Grade: 1
[7]; sum of lesion grades of the group (N=3)
  Total score: 7
[8]; 2 h
  hEPO conc. (ng/mL) at 2 h: 1.02 ng/mL
[8]; 6 h
  hEPO conc. (ng/mL) at 6 h: 5.02 ng/mL
[8]; 24 h
  hEPO conc. (ng/mL) at 24 h: 7.65 ng/mL
[8]; 48 h
  hEPO conc. (ng/mL) at 48 h: 2.44 ng/mL
[8]; 72 h
  hEPO conc. (ng/mL) at 72 h: 0.76 ng/mL

From patent publication US20260200849A1, “CATIONIC LIPIDS AND PREPARATION METHOD THEREOF” (RiboX Therapeutics HK Limited, priority 2024, published 2026)
